{"source": "patent US20080031931A1", "about": "“ORGANOTELLURIUM AND SELENIUM-BASED ANTIMICROBIAL FORMULATIONS AND ARTICLES” (Andover Healthcare, Inc., priority 2006, published 2008)", "test_system": "Methicillin-Resistant Staphylococcus aureus (MRSa) ATCC 33592", "assay": "Time-kill (rate-of-kill) suspension assay against MRSa", "format": "cell-based", "source_text": "Analyzing the efficacy of antimicrobial agents may be performed by various suspension and susceptibility methods. This study is designed to examine the rate-of-kill of a test substance against sponsor selected pure cultures of microorganisms. This is accomplished by exposing the target microorganism(s) to the test substance and inspecting the solution for potential survivors at various time periods. The experimental design in this protocol meets these requirements.\nA suspension of bacterial cells is exposed to the test substance for specified contact times. After exposure, an aliquot of the suspension is transferred to a neutralizer and assayed for survivors. Appropriate purity, sterility, microorganism population and neutralization controls are performed.\nUsing a stock culture of the test organism, a culture of the test organism was struck onto the culture medium listed above. The bacterial cultures were incubated for 24-48 hours at 35-37° C. (alternate incubation may be utilized for certain strains). To produce a suspension containing approximately 1×10^8-1×10^9 CFU/mL, the culture suspension was adjusted with Butterfield's Buffer to yield a suspension matching a 0.5 McFarland turbidity standard.\nThe test substance to be tested was prepared by transferring a 5.95 mL aliquot of the prepared test substance to a sterile vessel for testing procedures. The test substances were assayed for microbial killing activity within 3 hours of preparation.\nA […] aliquot of the standardized inoculum was added to the test substance representing the start of the test exposure (time=0 hr). The inoculated test substance was immediately mixed thoroughly using a laboratory vortex mixer or other applicable method. The inoculated and mixed test substance was held at the specified temperature.\nA 1.0 mL aliquot of the inoculated test substance was transferred to 9 mL of neutralizer broth (10× dilution) at each of the times indicated. Four additional 1:10 dilutions in Butterfield's Buffer were also prepared. Using a standard microbiological spread plate count procedure, 1.0 mL aliquots of each dilution (10^−1-10^−4) were plated in duplicate to the appropriate recovery media.\nA 5.0 mL aliquot of the neutralized sample (10× dilution) was transferred to a sterile 0.2-0.45 μm filter apparatus system pre-wetted with 10 mL sterile diluent. The sample was filter concentrated and the filter was rinsed using ≧50 mL sterile diluent. The filter was then aseptically removed and placed on the surface of the recovery agar medium to determine the percent MRSa survival.\nThe bacterial subculture plates were incubated for 48±4 hours at 35-37° C. Subculture plates may be refrigerated at 2-8° C. for ≦3 days prior to examination without affecting the results. Following incubation, the subculture tubes and plates were visually examined for growth. The agar plates were enumerated and recorded. Log and percent reductions will be determined for each time point.\nAs a control for the viability of the test organism, an equivalent volume of untreated inoculum (0.1 mL) is added to 9.9 mL Butterfield's Buffer (same volume as the test substance). This suspension was neutralized as in the test procedure. The suspension was serially diluted and appropriate dilutions plated using standard microbiological techniques. […] The acceptance criteria for this study control is growth and the value is used for calculation purposes.\nTest Data CFU/mL: (avg. # colonies found/plate @ dilution used) (dilution factor) (volume of neutralized solution)/(volume plated) Percent Reduction: [1−(test survivors/test population control)]×100 Log10 Reduction: Log10 (test population control)—Log10 (test survivors) Further details of the microbial time-killing studies can be found in: • 1. American Society for Testing and Materials (ASTM). E2315-03, Guide for Assessment of Microbiocidal Activity Using a Time-Kill Procedure, Volume 11.05, Copyright 2005 ASTM International; and • 2. Food and Drug Administration. […]", "key": {"[1]": {"conditions": "2 hour exposure, room temperature (20° C.), Agent 1 at 82 mM, Agent 2 at 41 mM, Agent 3 at 47 mM, 1.13×10^6 CFU/mL"}, "[2]": {"conditions": "4 hour exposure, room temperature (20° C.), Agent 1 at 82 mM, Agent 2 at 41 mM, Agent 3 at 47 mM"}, "[3]": {"conditions": "6 hour exposure, room temperature (20° C.), Agent 1 at 82 mM, Agent 2 at 41 mM, Agent 3 at 47 mM"}, "[4]": {"conditions": "2 hour exposure, room temperature (20° C.), Agent 1 at 82 mM, Agent 2 at 41 mM, Agent 3 at 47 mM, dihydrochloride"}, "[5]": {"conditions": "4 hour exposure, room temperature (20° C.), Agent 1 at 82 mM, Agent 2 at 41 mM, Agent 3 at 47 mM, dihydrochloride"}, "[6]": {"conditions": "6 hour exposure, room temperature (20° C.), Agent 1 at 82 mM, Agent 2 at 41 mM, Agent 3 at 47 mM, dihydrochloride"}, "[7]": {"conditions": "2 hour exposure, room temperature (20° C.), Agent 4 dissolved in DMSO, tested at 1, 10, and 100 mM"}, "[8]": {"conditions": "4 hour exposure, room temperature (20° C.), Agent 4 dissolved in DMSO, tested at 1, 10, and 100 mM"}, "[9]": {"conditions": "6 hour exposure, room temperature (20° C.), Agent 4 dissolved in DMSO, tested at 1, 10, and 100 mM"}}, "note": "Counter-ions that a name gives are not always drawn."}
{"smiles": "NCC[Te]CCN", "note": "[Agent 3, 2,2′-tellurodiethanamine 2 HCl]", "values": [{"measurement": "log10 reduction of MRSa", "setting": "2 hour exposure, room temperature (20° C.), Agent 1 at 82 mM, Agent 2 at 41 mM, Agent 3 at 47 mM", "value": 3.4, "unit": "log10"}, {"measurement": "reduction of MRSa", "setting": "[1]", "value": "> 99.9", "unit": "%"}, {"measurement": "log10 reduction of MRSa", "setting": "[2]", "value": "> 4.1", "unit": "log10"}, {"measurement": "reduction of MRSa", "setting": "[2]", "value": "> 99.9", "unit": "%"}, {"measurement": "log10 reduction of MRSa", "setting": "[3]", "value": "> 4.1", "unit": "log10"}, {"measurement": "reduction of MRSa", "setting": "[3]", "value": "> 99.9", "unit": "%"}]}
{"smiles": "O=[Te]([O-])[O-].[K+].[K+]", "note": "[Test Substance 1, Potassium tellurite, reference compound]", "values": [{"measurement": "reduction of MRSa", "setting": "all time points (exposure times of 2, 4 and 6 hours), starting ~3-4×10^6 CFU/mL MRSA ATCC 33592", "value": "very little to no reduction"}]}
{"smiles": "NCC[Se][Se]CCN", "note": "[Agent 2, selenocystamine dihydrochloride, reference compound]", "values": [{"measurement": "reduction of MRSa", "setting": "[1]", "value": 95.5, "unit": "%"}, {"measurement": "log10 reduction of MRSa", "setting": "[4]", "value": 1.34, "unit": "log10"}, {"measurement": "log10 reduction of MRSa", "setting": "[5]", "value": 1.946, "unit": "log10"}, {"measurement": "reduction of MRSa", "setting": "[5]", "value": 98.9, "unit": "%"}, {"measurement": "log10 reduction of MRSa", "setting": "[6]", "value": 2.024, "unit": "log10"}, {"measurement": "reduction of MRSa", "setting": "[6]", "value": 99.1, "unit": "%"}]}
{"smiles": "NCC[Se][Se]CCN", "note": "[Agent 1, selenocystamine dihydrochloride]", "values": [{"measurement": "reduction of MRSa", "setting": "2 hour exposure, room temperature (20° C.), Agent 1 at 82 mM, Agent 2 at 41 mM, Agent 3 at 47 mM, 1.13×10^6 CFU/mL, dihydrochloride", "value": 51.3, "unit": "%"}, {"measurement": "log10 reduction of MRSa", "setting": "[4]", "value": 0.31, "unit": "log10"}, {"measurement": "log10 reduction of MRSa", "setting": "[5]", "value": 0.54, "unit": "log10"}, {"measurement": "reduction of MRSa", "setting": "[5]", "value": 71.7, "unit": "%"}, {"measurement": "log10 reduction of MRSa", "setting": "[6]", "value": 1.004, "unit": "log10"}, {"measurement": "reduction of MRSa", "setting": "[6]", "value": 90.1, "unit": "%"}]}
{"smiles": "C=C(C)C(=O)OCC[Se]C#N", "note": "[2-selenocyanatoethyl methacrylate]", "values": [{"measurement": "log10 reduction of MRSa", "setting": "[7]", "value": "> 4.1", "unit": "log10"}, {"measurement": "reduction of MRSa", "setting": "[7]", "value": "> 99.9", "unit": "%"}, {"measurement": "log10 reduction of MRSa", "setting": "[8]", "value": "> 4.1", "unit": "log10"}, {"measurement": "reduction of MRSa", "setting": "[8]", "value": "> 99.9", "unit": "%"}, {"measurement": "log10 reduction of MRSa", "setting": "[9]", "value": "> 4.1", "unit": "log10"}, {"measurement": "reduction of MRSa", "setting": "[9]", "value": "> 99.9", "unit": "%"}]}
